{
  "source": "patent US11787780B2",
  "about": "(CORCEPT THERAPEUTICS INCORPORATED, priority 2020, dated 2023)",
  "key": {"[1]": {"tested_on": "induction of TAT by dexamethasone in HepG2 cells", "test": "Hep G2 TAT assay (inhibition of dexamethasone-induced TAT)", "assay_type": "cell-based, human", "conditions": "challenge of 100 nM dexamethasone, IC50 converted to Ki by Cheng and Prusoff equation"}, "[2]": {"target": "glucocorticoid receptor (GR) recombinant ligand binding domain (LBD) (Homo sapiens (Human), UniProt P04150)", "sequence (P04150 524-758)": "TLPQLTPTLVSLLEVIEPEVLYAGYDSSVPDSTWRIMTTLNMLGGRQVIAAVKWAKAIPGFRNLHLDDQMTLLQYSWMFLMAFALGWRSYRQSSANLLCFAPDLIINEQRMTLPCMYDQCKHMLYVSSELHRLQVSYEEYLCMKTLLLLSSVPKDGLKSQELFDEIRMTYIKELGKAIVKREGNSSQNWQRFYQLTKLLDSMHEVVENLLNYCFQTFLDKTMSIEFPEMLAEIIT", "test": "GR binding fluorescence polarisation (FP) assay", "conditions": "displacement of fluorescently tagged ligand", "description": "Binding of test compounds to the glucocorticoid receptor (GR) is determined using a fluorescence polarisation (FP) assay utilising a recombinant ligand binding domain (LBD) of GR. The test compounds are assessed by their ability to displace a fluorescently tagged ligand and detection of the resulting decrease in fluorescence polarisation."}},
  "note": "pIC50, pKi: −log10 of the molar value.",
  "data": [
    {"compound": "Cn1cc(S(=O)(=O)N2CCC(Cc3ccccc3)(c3cc4cnn(-c5ccc(F)cc5)c4cc3Cl)C2)cn1", "note": "(centres unmarked) [Example 223, 5-(3-benzyl-1-((1-methyl-1H-pyrazol-4-yl)sulfonyl)pyrrolidin-3-yl)-6-chloro-1-(4-fluorophenyl)-1H-indazole]", "values": [
      {"measurement": "pKi", "setting": "[1]", "result": 7.42},
      {"measurement": "pIC50", "setting": "[2]", "result": 7.85}
    ]},
    {"compound": "Cc1cc2c(cnn2-c2ccc(F)cc2)cc1N1CCN(C(=O)c2ccc(F)c(F)c2)C2(CC2)C1", "note": "[Example 101]", "values": [
      {"measurement": "pKi", "setting": "[1]", "result": 6.08},
      {"measurement": "pIC50", "setting": "[2]", "result": 6.93}
    ]},
    {"compound": "Cc1cc2c(cnn2-c2ccc(=O)n(C)c2)cc1C1(Cc2ccccc2)CCN(C(=O)c2ccccc2)C1", "note": "(centres unmarked) [Example 326, 5-(5-(1-benzoyl-3-benzylpyrrolidin-3-yl)-6-methyl-1H-indazol-1-yl)-1-methylpyridin-2(1H)-one]", "values": [
      {"measurement": "pKi", "setting": "[1]", "result": 7.24},
      {"measurement": "pIC50", "setting": "[2]", "result": 7.36}
    ]},
    {"compound": "Cc1cc2c(cnn2-c2ccc(=O)n(C)c2)cc1C1(Cc2ccccc2)CCN(S(=O)(=O)c2cnccc2Cl)C1", "note": "(centres unmarked) [Example 311, 5-(5-(3-benzyl-1-((4-chloropyridin-3-yl)sulfonyl)pyrrolidin-3-yl)-6-methyl-1H-indazol-1-yl)-1-methylpyridin-2(1H)-one]", "values": [
      {"measurement": "pKi", "setting": "[1]", "result": 7.54},
      {"measurement": "pIC50", "setting": "[2]", "result": 8.52}
    ]},
    {"compound": "Cc1cc2c(cnn2-c2ccc(=O)n(C)c2)cc1C1(Cc2ccccc2)CCN(C(=O)c2ccsc2)C1", "note": "(centres unmarked) [Example 329, 5-(5-(3-benzyl-1-(thiophene-3-carbonyl)pyrrolidin-3-yl)-6-methyl-1H-indazol-1-yl)-1-methylpyridin-2(1H)-one]", "values": [
      {"measurement": "pKi", "setting": "[1]", "result": 6.85},
      {"measurement": "pIC50", "setting": "[2]", "result": 8.00}
    ]},
    {"compound": "CCCn1cc(S(=O)(=O)N2CC=C(c3cc4cnn(-c5ccc(F)cc5)c4cc3OC(F)F)CC2)cn1", "note": "[Example 144]", "values": [
      {"measurement": "pKi", "setting": "[1]", "result": 6.74},
      {"measurement": "pIC50", "setting": "[2]", "result": 6.58}
    ]},
    {"compound": "Cc1cc2c(cnn2-c2ccc(F)cc2)cc1C1(Cc2ccccn2)CCN(S(=O)(=O)c2cnn(C)c2)C1", "note": "(centres unmarked) [Example 151]", "values": [
      {"measurement": "pKi", "setting": "[1]", "result": 6.79},
      {"measurement": "pIC50", "setting": "[2]", "result": 7.77}
    ]},
    {"compound": "CCCn1cc(S(=O)(=O)N2CCC(c3cc4cnn(-c5ccc(F)cc5)c4cc3C)CC2)cn1", "note": "[Example 6, 1-(4-fluorophenyl)-6-methyl-5-(1-((1-propyl-1H-pyrazol-4-yl)sulfonyl)piperidin-4-yl)-1H-indazole]", "values": [
      {"measurement": "pKi", "setting": "[1]", "result": 6.93},
      {"measurement": "pIC50", "setting": "[2]", "result": 6.83}
    ]},
    {"compound": "CCCn1cc(S(=O)(=O)NC2(C)CCN(c3cc4cnn(-c5ccc(F)cc5)c4cc3C)C2)cn1", "note": "(centres unmarked) [Example 120]", "values": [
      {"measurement": "pKi", "setting": "[1]", "result": 6.66},
      {"measurement": "pIC50", "setting": "[2]", "result": 8.52}
    ]},
    {"compound": "CCCn1cc(S(=O)(=O)N2CCC3(CCN(c4cc5cnn(-c6ccc(F)cc6)c5cc4C)CC3)C2)cn1", "note": "[Example 94]", "values": [
      {"measurement": "pKi", "setting": "[1]", "result": 7.02},
      {"measurement": "pIC50", "setting": "[2]", "result": 7.28}
    ]},
    {"compound": "Cc1cc2c(cc1C1(Cc3ccccc3)CCN(S(=O)(=O)c3cnn(C)c3)C1)nnn2-c1ccc(F)cc1", "note": "(centres unmarked) [Example 172]", "values": [
      {"measurement": "pKi", "setting": "[1]", "result": 7.08},
      {"measurement": "pIC50", "setting": "[2]", "result": 7.24}
    ]},
    {"compound": "Cc1cc2c(cnn2-c2cc(C)c(=O)n(C)c2)cc1C1(Cc2ccccc2)CCN(S(=O)(=O)c2ccc(F)c(F)c2)C1", "note": "(centres unmarked) [Example 271, 5-(5-(3-benzyl-1-((3,4-difluorophenyl)sulfonyl)pyrrolidin-3-yl)-6-methyl-1H-indazol-1-yl)-1,3-dimethylpyridin-2(1H)-one]", "values": [
      {"measurement": "pKi", "setting": "[1]", "result": 7.26},
      {"measurement": "pIC50", "setting": "[2]", "result": 7.70}
    ]},
    {"compound": "Cc1cc2c(cnn2-c2ccc(F)c(C#N)c2)cc1C1(Cc2ccccc2)CCN(S(=O)(=O)c2cnn(C)n2)C1", "note": "(centres unmarked) [Example 239, 5-(5-(3-benzyl-1-((2-methyl-2H-1,2,3-triazol-4-yl)sulfonyl)pyrrolidin-3-yl)-6-methyl-1H-indazol-1-yl)-2-fluorobenzonitrile]", "values": [
      {"measurement": "pKi", "setting": "[1]", "result": 7.44},
      {"measurement": "pIC50", "setting": "[2]", "result": 7.55}
    ]},
    {"compound": "CCCn1cc(S(=O)(=O)N2CCN(c3cc4cnn(-c5ccc(F)cc5)c4cc3C)CC23CC3)cn1", "note": "[Example 60]", "values": [
      {"measurement": "pKi", "setting": "[1]", "result": 7.41},
      {"measurement": "pIC50", "setting": "[2]", "result": 8.10}
    ]},
    {"compound": "COc1cc2c(cnn2-c2ccc(F)c(C#N)c2)cc1C1(Cc2ccccc2)CCN(S(=O)(=O)c2cnn(C)n2)C1", "note": "(centres unmarked) [Example 243, 5-(5-(3-benzyl-1-((2-methyl-2H-1,2,3-triazol-4-yl)sulfonyl)pyrrolidin-3-yl)-6-methoxy-1H-indazol-1-yl)-2-fluorobenzonitrile]", "values": [
      {"measurement": "pKi", "setting": "[1]", "result": 7.42},
      {"measurement": "pIC50", "setting": "[2]", "result": 7.19}
    ]},
    {"compound": "Cc1cc2c(cnn2-c2ccc(=O)n(C)c2)cc1C1(Cc2ccccc2)CCN(S(=O)(=O)c2cn(C)nn2)C1", "note": "(centres unmarked) [Example 275, 5-(5-(3-benzyl-1-((1-methyl-1H-1,2,3-triazol-4-yl)sulfonyl)pyrrolidin-3-yl)-6-methyl-1H-indazol-1-yl)-1-methylpyridin-2(1H)-one]", "values": [
      {"measurement": "pKi", "setting": "[1]", "result": 7.15},
      {"measurement": "pIC50", "setting": "[2]", "result": 7.74}
    ]},
    {"compound": "Cc1cc2c(cnn2-c2cc(C3CC3)c(=O)n(C)c2)cc1C1(Cc2ccccc2)CCN(S(=O)(=O)c2cnn(C)n2)C1", "note": "(centres unmarked) [Example 262, 5-(5-(3-benzyl-1-((2-methyl-2H-1,2,3-triazol-4-yl)sulfonyl)pyrrolidin-3-yl)-6-methyl-1H-indazol-1-yl)-3-cyclopropyl-1-methylpyridin-2(1H)-one]", "values": [
      {"measurement": "pKi", "setting": "[1]", "result": 6.72},
      {"measurement": "pIC50", "setting": "[2]", "result": 6.55}
    ]},
    {"compound": "Cc1cc2c(cnn2-c2ccc(=O)n(C)c2)cc1C1(Cc2ccccc2)CCN(S(=O)(=O)c2ccn(C)n2)C1", "note": "(centres unmarked) [Example 276, 5-(5-(3-benzyl-1-((1-methyl-1H-pyrazol-3-yl)sulfonyl)pyrrolidin-3-yl)-6-methyl-1H-indazol-1-yl)-1-methylpyridin-2(1H)-one]", "values": [
      {"measurement": "pKi", "setting": "[1]", "result": 7.28},
      {"measurement": "pIC50", "setting": "[2]", "result": 8.27}
    ]},
    {"compound": "Cc1cc2c(cnn2-c2ccc(F)cc2)cc1N1CCC[C@H](N(C)S(=O)(=O)c2cnn(C)c2)C1", "note": "[Example 124]", "values": [
      {"measurement": "pKi", "setting": "[1]", "result": 6.67},
      {"measurement": "pIC50", "setting": "[2]", "result": 7.24}
    ]},
    {"compound": "Cc1cncc(S(=O)(=O)N2CCC(Cc3ccccc3)(c3cc4cnn(-c5ccc(=O)n(C)c5)c4cc3C)C2)c1", "note": "(centres unmarked) [Example 309, 5-(5-(3-benzyl-1-((5-methylpyridin-3-yl)sulfonyl)pyrrolidin-3-yl)-6-methyl-1H-indazol-1-yl)-1-methylpyridin-2(1H)-one]", "values": [
      {"measurement": "pKi", "setting": "[1]", "result": 7.18},
      {"measurement": "pIC50", "setting": "[2]", "result": 7.96}
    ]},
    {"compound": "Cc1cc2c(cnn2-c2cn(C)nc2C)cc1C1(Cc2ccccc2)CCN(S(=O)(=O)c2cnn(C)n2)C1", "note": "(centres unmarked) [Example 257, 5-(3-benzyl-1-((2-methyl-2H-1,2,3-triazol-4-yl)sulfonyl)pyrrolidin-3-yl)-1-(1,3-dimethyl-1H-pyrazol-4-yl)-6-methyl-1H-indazole]", "values": [
      {"measurement": "pKi", "setting": "[1]", "result": 6.66},
      {"measurement": "pIC50", "setting": "[2]", "result": 7.28}
    ]},
    {"compound": "CCc1cc(-n2ncc3cc(C4(Cc5ccccc5)CCN(S(=O)(=O)c5cnn(C)n5)C4)c(C)cc32)cn(C)c1=O", "note": "(centres unmarked) [Example 263, 5-(5-(3-benzyl-1-((2-methyl-2H-1,2,3-triazol-4-yl)sulfonyl)pyrrolidin-3-yl)-6-methyl-1H-indazol-1-yl)-3-ethyl-1-methylpyridin-2(1H)-one]", "values": [
      {"measurement": "pKi", "setting": "[1]", "result": 7.00},
      {"measurement": "pIC50", "setting": "[2]", "result": 6.96}
    ]},
    {"compound": "C[C@@H]1CN(S(=O)(=O)c2cnn(C)c2)CCN1c1ccc2c(cnn2-c2ccc(F)cc2)c1", "note": "[Example 1, (R)-1-(4-fluorophenyl)-5-(2-methyl-4-((1-methyl-1H-pyrazol-4-yl)sulfonyl)piperazin-1-yl)-1H-indazole]", "values": [
      {"measurement": "pKi", "setting": "[1]", "result": 6.23},
      {"measurement": "pIC50", "setting": "[2]", "result": 6.03}
    ]},
    {"compound": "Cn1cc(S(=O)(=O)N2CCC(Cc3ccccc3)(c3cc4cnn(-c5ccc(F)cc5)c4cc3F)C2)cn1", "note": "(centres unmarked) [Example 173]", "values": [
      {"measurement": "pKi", "setting": "[1]", "result": 7.16},
      {"measurement": "pIC50", "setting": "[2]", "result": 7.18}
    ]},
    {"compound": "Cc1cc2c(cnn2-c2ccc(=O)n(C)c2)cc1C1(Cc2ccccc2)CCN(S(=O)(=O)c2ccc(C#N)cc2)C1", "note": "(centres unmarked) [Example 308, 4-((3-benzyl-3-(6-methyl-1-(1-methyl-6-oxo-1,6-dihydropyridin-3-yl)-1H-indazol-5-yl)pyrrolidin-1-yl)sulfonyl)benzonitrile]", "values": [
      {"measurement": "pKi", "setting": "[1]", "result": 7.21},
      {"measurement": "pIC50", "setting": "[2]", "result": 7.85}
    ]}
  ]
}
